In general, LD50 refers to the dose at which mortality reaches 50%.

Each structure is given as a SMILES string. Where only a bound is given, the exact number is not on record here.

Series [1] has as its system accumulation of sorbitol in the crystalline lenses. Briefly: Inhibition of accumulation of sorbitol in crystalline lenses of diabetic rats. In kind it is in vivo, Sprague Dawley rats. The settings on record: for Inhibition of accumulation of sorbitol in vivo, crystalline lenses: oral 25 mg/kg at 0, 7 and 24 h, sacrificed 27 h; for inhibition of accumulation of sorbitol in crystalline lenses and sciatic nerves (in words): oral 25 mg/kg. As to the method: (§1) 2.1 Inhibition of accumulation of sorbitol in crystalline lenses and nerves of diabetic rats:
(§2) The effects of the products according to the invention on the proportion of plasma glucose and the accumulation of sorbitol in the crystalline lenses and sciatic nerves of rats made diabetic by streptozotocin were examined by the method of M. J. Peterson, et al (Metabolism, 28, 456-461 (1979)).
(§3) Fasted Sprague Dawley rats were made diabetic by intraperitoneal injection of streptozotocin (75 mg/kg). The product under test was orally administered at a dose of 25 mg/kg after 0, 7 and 24 hours. The rats were sacrificed 27 hours after induction of diabetes. The crystalline lenses and sciatic nerves were taken and preserved at -20° C. until analysed. The crystalline lenses and sciatic nerves were homogenized in water and the proteins were precipitated from ethanol. The precipitate was eliminated by centrifuging and the supernatant liquid was lyophylised. The sorbitol in the sample was determined by the method of B. Bjorkqvist (J. of Chromatograph, 218, 65-71 (1981)), adapted by A. Lenaers et al. (Arch. Intern. Physiol. Bioch., 91, B, 62-63 (1983)).
(§4) The sample was dissolved in pyridine containing galactitol as an internal standard. Derivatives were formed therefrom by phenylisocyanate during incubation for 1 hour at 60° C. The reaction was then stopped by adding methanol and the derivatives were separated and determined by HPLC.
(§5) The results are expressed as percentage inhibition of the accumulation of sorbitol, compared with the controls.

For series [2], the system named is accumulation of sorbitol in the sciatic nerves. Description: Inhibition of accumulation of sorbitol in sciatic nerves of diabetic rats. In kind it is in vivo, Sprague Dawley rats. Conditions: oral 25 mg/kg at 0, 7 and 24 h, sacrificed 27 h. On the procedure: as §1, §2, §3, §4, §5
Series [3] can be described thus: Acute oral toxicity (LD50). Format: in vivo. The settings on record: mouse, in vivo, mice, read-out: Lethal dose LD50. On the procedure: The LD 50 was calculated by the method of Litchfield and Wilcoxon (J. Pharmacol. Exp. Ther., 96, 99, 1949) and is expressed in mg/kg. The products were orally administered to mice.
Behaviour was studied, 2, 4, 6 and 24 hours after treatment. Observation was continued if symptoms persisted at that time. Deaths were recorded during the 14 days after treatment. The results are given in Table II, in which the numbers of the compounds are the same as the numbers given in column 1 of Table I.

In the case of `O=C(OCc1ccccc1)OCN1C(=O)N(COC(=O)OCc2ccccc2)C2(C1=O)c1ccccc1-c1ccccc12` [Compound 13], in series [1], the “Inhibition of accumulation of sorbitol in vivo, crystalline lenses” value (from here on “Inhibition … in vivo, crystalline lenses”) is listed as 33%. Moreover, in series [2], the “Inhibition of accumulation of sorbitol in vivo, in sciatic nerves” value (from here on “Inhibition … in sciatic nerves”) was determined as 50%.

`CC(OC(=O)C(C)(C)C)N1C(=O)NC2(C1=O)c1ccccc1-c1ccccc12` (stereo not drawn) [Compound 7, 1'-/1-(2,2-dimethylpropanoyloxy)-ethyl/-spiro-/fluorene-9,4'-imidazolidine/-2',5'-dione]: in series [1], the “Inhibition … in vivo, crystalline lenses” value was 45%. For the same molecule, in series [2], the “Inhibition … in sciatic nerves” value amounted to 72%.

Turning to `O=C(Nc1ccccc1)OCN1C(=O)N(COC(=O)Nc2ccccc2)C2(C1=O)c1ccccc1-c1ccccc12` [Compound 18, bis-(1',3'-N-phenylcarbamoyloxymethyl)-spiro-/fluorene-9,4'-imidazolidine/-2',5'-dione], the LD50 at 336 h in series [3] was over 3000 mg/kg. Besides, in series [1], the “Inhibition … in vivo, crystalline lenses” value stood at 8%. Besides, in series [2], the “Inhibition … in sciatic nerves” value is recorded as 17%.

In the case of `CCC(C(=O)OCN1C(=O)N(COC(=O)C(CC)c2ccccc2)C2(C1=O)c1ccccc1-c1ccccc12)c1ccccc1` (stereo not drawn) [Compound 20], the LD50 at 336 h in series [3] is over 3000 mg/kg. Besides, in series [1], the “Inhibition … in vivo, crystalline lenses” value is 60%. Further, the “Inhibition … in sciatic nerves” value in series [2] is given as 77%.

For the molecule `O=C(OCN1C(=O)N(COC(=O)C2CCCCC2)C2(C1=O)c1ccccc1-c1ccccc12)C1CCCCC1` [Compound 12], the LD50 at 336 h in series [3] is over 1000 mg/kg. For the same molecule, the “Inhibition … in vivo, crystalline lenses” value in series [1] was 12%. Further, in series [2], the “Inhibition … in sciatic nerves” value came out at 48%.

For `O=C(CCCC1CCCCC1)OCN1C(=O)N(COC(=O)CCCC2CCCCC2)C2(C1=O)c1ccccc1-c1ccccc12` [Compound 8], in series [3], the LD50 at 336 h was over 3000 mg/kg. In series [1], the “Inhibition … in vivo, crystalline lenses” value was found to be 69%; the “inhibition of accumulation of sorbitol in crystalline lenses and sciatic nerves (in words)” value (“inhibition of accumulation … (in words)” for short) is recorded as “particularly active”. For the same molecule, the “Inhibition … in sciatic nerves” value in series [2] was 85%.

Regarding `O=C(OCN1C(=O)N(COC(=O)C2CCCC2)C2(C1=O)c1ccccc1-c1ccccc12)C1CCCC1` [Compound 19], the LD50 at 336 h in series [3] was over 3000 mg/kg. In series [1], the “Inhibition … in vivo, crystalline lenses” value is reported as 77%; the “inhibition of accumulation … (in words)” value is on record as “particularly active”. For the same molecule, the “Inhibition … in sciatic nerves” value in series [2] was determined as 89%.

Turning to `O=C(OCN1C(=O)N(COC(=O)c2ccccc2)C2(C1=O)c1ccccc1-c1ccccc12)c1ccccc1` [Compound 3], the LD50 at 336 h in series [3] is over 3000 mg/kg. Further, in series [1], the “Inhibition … in vivo, crystalline lenses” value is 37%. For the same molecule, in series [2], the “Inhibition … in sciatic nerves” value was determined as 55%.

In the case of `CC(C)(C)C(=O)OCN1C(=O)N(COC(=O)C(C)(C)C)C2(C1=O)c1ccccc1-c1ccccc12` [Compound 4], the “Inhibition … in vivo, crystalline lenses” value in series [1] is reported as 51%. In addition, in series [2], the “Inhibition … in sciatic nerves” value was 50%.

Consider `O=C(OCN1C(=O)N(COC(=O)Oc2ccccc2)C2(C1=O)c1ccccc1-c1ccccc12)Oc1ccccc1` [Compound 16], for which the LD50 at 336 h in series [3] is over 3000 mg/kg. The “Inhibition … in vivo, crystalline lenses” value in series [1] was determined as 53%. In series [2], the “Inhibition … in sciatic nerves” value was 65%.

Regarding `CC(C)(C)CC(=O)OCN1C(=O)N(COC(=O)CC(C)(C)C)C2(C1=O)c1ccccc1-c1ccccc12` [Compound 9], in series [3], the median lethal dose (LD50) at 336 h is over 1000 mg/kg. Further, in series [1], the “Inhibition … in vivo, crystalline lenses” value came out at 49%. The “Inhibition … in sciatic nerves” value in series [2] worked out at 70%.

Take `CCOC(=O)OCN1C(=O)N(COC(=O)OCC)C2(C1=O)c1ccccc1-c1ccccc12` [Compound 10, bis-(1',3'-ethoxycarbonyloxymethyl)-spiro-/fluorene-9,4'-imidazolidine/-2',5'-dione]: the LD50 at 336 h in series [3] was over 3000 mg/kg. Further, in series [1], the “Inhibition … in vivo, crystalline lenses” value is reported as 80%; the “inhibition of accumulation … (in words)” value is “particularly active”. Besides, the “Inhibition … in sciatic nerves” value in series [2] is on record as 84%.

Source of the values: patent US4853401A, “Spiro-hydantoins as aldose reductase inhibitors” (priority 1987, dated 1989).
